# According to patent US11649227B2, “Allosteric chromenone inhibitors of phosphoinositide 3-kinase (PI3K) for the treatment of disease” (Petra Pharma Corporation, priority 2020, dated 2023):
# Key:
# [1] = target: human full length PIK3CA Wild-type (p110α/p85α complex) (Homo sapiens (Human), UniProt P42336); assay: PI3K-Alpha kinase (PIK3CA) activity, wild-type, Transcreener ADP2 FI assay; settings: PI3K-α (PIK3CA) wild-type, biochemical
# Protocol: (§1) PI3K-Alpha kinase (PIK3CA) activity, wild-type and H1047R mutant and determining IC50 values for inhibitors
# (§2) Recombinant, catalytically active human full length PIK3KA Wild-type and H1047R mutant were purchased as 1:1 complex of N-terminal 6×his tagged p110<(catalytic) and untagged p85<(regulatory subunit) from EMD Millipore Sigma (cat. no. 14-602M and 14-792M, respectively). The enzyme stocks were diluted to 5× stocks in buffer (20 mM HEPES pH 7.4, 100 mM NaCl, 0.5 mM EGTA, 0.01% triton-x-100) just before use. PIP2diC8 (Avanti Polar Lipids Inc., cat. no. 850185) or phosphoinositol-4,5-bisphosphate with phosphoserine (PIP2:PS) membrane (Thermo Fisher Scientific, cat. no. PV5100) was used as lipid substrates. PIP2diC8 lyophilized powder and PIP2:PS (1:19) membrane stock (1 mM in PIP2) were separately dissolved in milliQ water to a concentration of 250 uM and stored in −20° C. 10 mM stocks of compounds were serially diluted (3×) in neat DMSO and stored in a dessicator at room temperature. 5× compound stocks in 25% DMSO were prepared fresh from neat DMSO stocks. Wild-type (WT) and H1047R mutant protein, along with buffer components (except ATP), were incubated with or without compound at 27° C. for 1h. After incubation, the reaction was initiated by the addition of 5 uL of 125 uM ATP. A typical assay mixture (25 uL) comprised 40 mM HEPES buffer, pH 7.4, 25 mM MgCl2, 0.01% v/v triton-X-100, 5% v/v DMSO, 20 mM NaCl, 1-5 nM wt or H1047R, 25 uM ATP, and 50 uM PTP2diC8 or PTP2 in membrane. The reaction was allowed to proceed until about […] (2.5 uM ADP) after which time, 10 uL of reaction mixture was quenched with 25 uL of transcreener reagent (Transcreener ADP2 FI assay kit, BellBrook labs, Cat. No. 3013). The contents were incubated at rt for 1h and fluorescence was measured using a plate reader (Paradigm, Molecular Devices). The same assay was also run at pH 6.0 or 6.4 using MOPS buffer (Fisher BioReagents, CAS 1132-61-2). A calibration curve was generated under identical buffer conditions with varying ADP amounts. Using that, the observed fluorescence was converted to uM ADP. A plot between [ADP] and log[I] yielded the dose-response curves that enabled the calculation of IC50s.
# [2] = target: human full length PIK3CA H1047R mutant (p110α/p85α complex) (Homo sapiens (Human), UniProt P42336, H1047R); assay: PI3K-Alpha kinase (PIK3CA) activity, H1047R mutant, Transcreener ADP2 FI assay; settings: PI3K-α (PIK3CA) H1047R mutant, biochemical
# Protocol: as §1, §2
# human full length PIK3CA H1047R mutant (p110α/p85α complex), sequence (P42336 whole entry H1047R): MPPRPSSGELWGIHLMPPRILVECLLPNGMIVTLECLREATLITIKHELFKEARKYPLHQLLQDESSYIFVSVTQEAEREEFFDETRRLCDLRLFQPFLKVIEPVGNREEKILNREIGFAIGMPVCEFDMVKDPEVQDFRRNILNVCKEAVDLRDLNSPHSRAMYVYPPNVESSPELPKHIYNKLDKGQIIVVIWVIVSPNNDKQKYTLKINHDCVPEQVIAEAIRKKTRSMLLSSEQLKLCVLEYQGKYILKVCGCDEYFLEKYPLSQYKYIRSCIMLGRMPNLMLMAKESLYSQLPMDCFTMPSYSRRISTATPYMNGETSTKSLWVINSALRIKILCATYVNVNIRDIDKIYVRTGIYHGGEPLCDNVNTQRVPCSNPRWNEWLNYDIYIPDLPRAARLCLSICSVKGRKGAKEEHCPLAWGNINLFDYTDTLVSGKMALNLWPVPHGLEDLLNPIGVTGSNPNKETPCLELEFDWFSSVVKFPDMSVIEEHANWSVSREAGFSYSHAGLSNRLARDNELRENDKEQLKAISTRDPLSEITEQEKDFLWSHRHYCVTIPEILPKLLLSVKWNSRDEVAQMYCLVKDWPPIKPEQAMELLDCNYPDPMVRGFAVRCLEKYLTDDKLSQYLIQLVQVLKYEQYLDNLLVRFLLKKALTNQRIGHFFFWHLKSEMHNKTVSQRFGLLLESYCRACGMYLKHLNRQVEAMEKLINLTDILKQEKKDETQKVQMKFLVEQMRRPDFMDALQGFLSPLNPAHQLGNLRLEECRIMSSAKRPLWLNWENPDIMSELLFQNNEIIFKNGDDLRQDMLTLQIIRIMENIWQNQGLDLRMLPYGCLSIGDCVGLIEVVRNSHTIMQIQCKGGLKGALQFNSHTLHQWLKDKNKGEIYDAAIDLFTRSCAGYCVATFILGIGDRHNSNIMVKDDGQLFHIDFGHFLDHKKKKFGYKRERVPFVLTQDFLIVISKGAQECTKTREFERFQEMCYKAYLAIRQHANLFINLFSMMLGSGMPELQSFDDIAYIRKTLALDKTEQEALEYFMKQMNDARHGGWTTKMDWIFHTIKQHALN
# human full length PIK3CA H1047R mutant (p110α/p85α complex), sequence (P27986 whole entry partner): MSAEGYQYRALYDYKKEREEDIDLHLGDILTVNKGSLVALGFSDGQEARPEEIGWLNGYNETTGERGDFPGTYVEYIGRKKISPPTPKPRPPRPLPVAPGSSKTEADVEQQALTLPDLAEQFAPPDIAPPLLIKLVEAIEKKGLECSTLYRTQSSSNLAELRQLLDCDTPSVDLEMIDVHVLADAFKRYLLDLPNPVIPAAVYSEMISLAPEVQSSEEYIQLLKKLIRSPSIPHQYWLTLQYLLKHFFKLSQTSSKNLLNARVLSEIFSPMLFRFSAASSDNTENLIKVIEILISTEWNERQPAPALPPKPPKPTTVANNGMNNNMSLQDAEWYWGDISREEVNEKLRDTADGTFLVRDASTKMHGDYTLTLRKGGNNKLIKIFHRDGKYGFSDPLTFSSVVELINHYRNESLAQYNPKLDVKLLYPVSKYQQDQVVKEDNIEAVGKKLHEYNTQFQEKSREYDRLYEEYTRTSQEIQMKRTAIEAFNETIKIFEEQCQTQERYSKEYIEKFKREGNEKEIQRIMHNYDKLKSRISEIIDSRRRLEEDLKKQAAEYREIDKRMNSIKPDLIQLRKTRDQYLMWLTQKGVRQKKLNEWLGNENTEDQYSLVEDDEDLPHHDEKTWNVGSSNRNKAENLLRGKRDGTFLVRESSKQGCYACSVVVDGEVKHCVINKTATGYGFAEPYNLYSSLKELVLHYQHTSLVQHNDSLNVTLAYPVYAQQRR
# human full length PIK3CA Wild-type (p110α/p85α complex), sequence (P42336 whole entry): as the sequence (P42336 whole entry H1047R) above, with R1047H counted along it
# human full length PIK3CA Wild-type (p110α/p85α complex), sequence (P27986 whole entry partner): as the sequence (P27986 whole entry partner) above
SMILES,IC50 [1] [nM],IC50 [2] [nM]
"COC12CC(C1)N(c1cc(=O)c3cc(C)cc(C(C)Nc4ccccc4C(=O)O)c3o1)C2 (single isomer, unassigned) [Example 112, 2-[1-[2-(4-Methoxy-2-azabicyclo[2.1.1]hexan-2-yl)-6-methyl-4-oxo-chromen-8-yl]ethylamino]benzoic acid]",1000 to 5000,500 to 1000
"Cc1cc(C(C)Nc2ccccc2C(=O)O)c2oc(N3CCOC(c4ccc(S(C)(=O)=O)cc4)C3)cc(=O)c2c1 (stereo not drawn) [Example 85, 2-[1-[6-Methyl-2-[2-(4-methylsulfonylphenyl)morpholin-4-yl]-4-oxo-chromen-8-yl]ethylamino]benzoic acid]",1000 to 5000,1000 to 5000
"Cc1cc(C(C)Nc2ccccc2C(=O)O)c2oc(N3CCC(C)(C)CC3)c(C#N)c(=O)c2c1 (stereo not drawn) [Example 392, 2-[1-[3-Cyano-2-(4,4-dimethyl-1-piperidyl)-6-methyl-4-oxo-chromen-8-yl]ethylamino]benzoic acid 2,2,2-trifluoroacetic acid]",500 to 1000,500 to 1000
"Cc1cc(C(C)Nc2cccc3c2C(=O)NC3)c2oc(N3CCC(C)(C)CC3)cc(=O)c2c1 (stereo not drawn) [Example 29, 7-[1-[2-(4,4-Dimethyl-1-piperidyl)-6-methyl-4-oxo-chromen-8-yl]ethylamino]isoindolin-1-one]",1000 to 5000,1000 to 5000
"Cc1cc(C(C)Nc2ccccc2C(=O)O)c2oc(N3CCC(C)(C)CC3)c(-c3cnoc3)c(=O)c2c1 (single isomer, unassigned) [Example 54, 2-[1-[2-(4,4-Dimethyl-1-piperidyl)-3-isoxazol-4-yl-6-methyl-4-oxo-chromen-8-yl]ethylamino]benzoic acid]",> 10000,> 10000
"Cc1cc(C(C)Nc2ccccc2C(=O)O)c2oc(N3CCC4(CC3)Cn3nc(C(=O)N(C)C)cc3CO4)cc(=O)c2c1 (stereo not drawn) [Example 107, 2-[1-[2-[2-(Dimethylcarbamoyl)spiro[4,7-dihydropyrazolo[5,1-c][1,4]oxazine-6,4′-piperidine]-1′-yl]-6-methyl-4-oxo-chromen-8-yl]ethylamino]benzoic acid]",5000 to 10000,1000 to 5000
"Cc1cc(C(C)Nc2ccccc2C(=O)O)c2oc(N3CCC(C)(C)CC3)c(-c3cnoc3)c(=O)c2c1 (single isomer, unassigned) [Example 53]",500 to 1000,< 500
"Cc1cc(C(C)Nc2ccccc2-c2noc(=O)[nH]2)c2oc(N3CCC(C)(C)CC3)cc(=O)c2c1 (stereo not drawn) [Example 45, 3-[2-[1-[2-(4,4-Dimethyl-1-piperidyl)-6-methyl-4-oxo-chromen-8-yl]ethylamino]phenyl]-4H-1,2,4-oxadiazol-5-one]",1000 to 5000,500 to 1000
"Cc1cc(C(C)Nc2ccccc2C(=O)O)c2oc(N3Cc4ccc(F)cc4C3)cc(=O)c2c1 (single isomer, unassigned) [Example 124, 2-[1-[2-(5-Fluoroisoindolin-2-yl)-6-methyl-4-oxo-chromen-8-yl]ethylamino]benzoic acid]",> 10000,5000 to 10000
"Cc1cc(C(C)Nc2ccccc2C(=O)O)c2oc(N3CCCOCC3)cc(=O)c2c1 (stereo not drawn) [Example 151, 2-[1-[6-Methyl-2-(1,4-oxazepan-4-yl)-4-oxo-chromen-8-yl]ethylamino]benzoic acid]",1000 to 5000,500 to 1000
"Cc1c(N2Cc3ccc(F)cc3C2)oc2c(C(C)Nc3ccccc3C(=O)O)cc(C(F)(F)F)cc2c1=O (single isomer, unassigned) [Example 343, 2-[1-[2-(5-Fluoroisoindolin-2-yl)-3-methyl-4-oxo-6-(trifluoromethyl)chromen-8-yl]ethylamino]benzoic acid]",500 to 1000,< 500
"Cc1cc(C(C)Nc2ccccc2C(=O)O)c2oc(N3CCS(=O)(=O)CC3)cc(=O)c2c1 (stereo not drawn) [Example 117, 2-[1-[2-(1,1-Dioxo-1,4-thiazinan-4-yl)-6-methyl-4-oxo-chromen-8-yl]ethylamino]benzoic acid]",,1000 to 5000

# Continued, values first:
IC50 [1] [nM],IC50 [2] [nM],SMILES
500 to 1000,< 500,"Cc1cc(C(C)Nc2ccccc2C(=O)O)c2oc(N3Cc4ccccc4C3)cc(=O)c2c1 (single isomer, unassigned) [Example 362, 2-[1-(2-Isoindolin-2-yl-6-methyl-4-oxo-chromen-8-yl)ethylamino]benzoic acid]"
500 to 1000,< 500,"Cc1cc(C(C)Nc2ccccc2C(=O)O)c2oc(N3CC(c4ccccc4)C3)cc(=O)c2c1 (single isomer, unassigned) [Example 236, 2-[1-[6-Methyl-4-oxo-2-(3-phenylazetidin-1-yl)chromen-8-yl]ethylamino]benzoic acid 2,2,2-trifluoroacetic acid]"
1000 to 5000,< 500,"Cc1cc(C(C)Nc2ccccc2C(=O)O)c2oc(N3CC4(C3)CC(F)(F)C4)cc(=O)c2c1 (single isomer, unassigned) [Example 222, 2-[1[2-(6,6-Difluoro-2-azaspiro[3.3]heptan-2-yl)-6-methyl-4-oxo-chromen-8-yl]ethylamino]benzoic acid 2,2,2-trifluoroacetic acid]"
< 500,< 500,"CC(Nc1ccccc1C(=O)O)c1cc(C(F)(F)F)cc2c(=O)cc(N3Cc4ccccc4C3)oc12 (single isomer, unassigned) [Example 342, 2-[1-[2-Isoindolin-2-yl-4-oxo-6-(trifluoromethyl)chromen-8-yl]ethylamino]benzoic acid]"
500 to 1000,< 500,"Cc1c(N2Cc3ccc(F)cc3C2)oc2c(C(C)Nc3ccccc3C(=O)O)cc(F)cc2c1=O (single isomer, unassigned) [Example 319, 2-[1-[6-Fluoro-2-(5-fluoroisoindolin-2-yl)-3-methyl-4-oxo-chromen-8-yl]ethylamino]benzoic acid]"
1000 to 5000,500 to 1000,"Cc1cc(C(C)Nc2ccc(Cl)nc2C(=O)O)c2oc(N3Cc4ccccc4C3)cc(=O)c2c1 (stereo not drawn) [Example 296, 6-Chloro-3-[1-(2-isoindolin-2-yl-6-methyl-4-oxo-chromen-8-yl)ethylamino]pyridine-2-carboxylic acid]"
500 to 1000,< 500,"Cc1cc(C(C)Nc2ccccc2C(=O)O)c2oc(N3Cc4ccc(F)cc4C3)cc(=O)c2c1 (single isomer, unassigned) [Example 123, 2-[1-[2-(5-Fluoroisoindolin-2-yl)-6-methyl-4-oxo-chromen-8-yl]ethylamino]benzoic acid]"
5000 to 10000,500 to 1000,"Cc1cc(C(C)Nc2ccccc2C(=O)O)c2oc(N3CCC(C(F)(F)F)CC3)cc(=O)c2c1 (stereo not drawn) [Example 74, 2-[1-[6-Methyl-4-oxo-2-[4-(trifluoromethyl)-1-piperidyl]chromen-8-yl]ethylamino]benzoic acid]"
1000 to 5000,< 500,"Cc1cc(C(C)Nc2ccccc2C(=O)O)c2oc(N3CCC(C)(C)CC3)c(C3CC3)c(=O)c2c1 (single isomer, unassigned) [Example 51, 2-[1-[3-Cyclopropyl-2-(4,4-dimethyl-1-piperidyl)-6-methyl-4-oxo-chromen-8-yl]ethyalmino]benzoic acid]"
> 10000,500 to 1000,"Cc1cc(C(C)Nc2ccccc2C(=O)O)c2oc(N3CCC(c4ccncc4)C3)cc(=O)c2c1 (single isomer, unassigned) [Example 194, 2-[1-[6-Methyl-4-oxo-2-[3-(4-pyridyl)pyrrolidin-1-yl]chromen-8-yl]ethylamino]benzoic acid 2,2,2-trifluoroacetic acid]"
1000 to 5000,1000 to 5000,Cc1cc([C@@H](C)Nc2ccnnc2C(=O)O)c2oc(N3CCC(C)(C)CC3)cc(=O)c2c1 [Example 251]
< 500,< 500,"Cc1c(N2CCC(F)(F)CC2)oc2c(C(C)Nc3ccccc3C(=O)O)cc(F)cc2c1=O (single isomer, unassigned) [Example 326, 2-[1-[2-(4,4-Difluoro-1-piperidyl)-6-fluoro-3-methyl-4-oxo-chromen-8-yl]ethylamino]benzoic acid]"
,1000 to 5000,"CNC(=O)C1CCN(c2cc(=O)c3cc(C)cc(C(C)Nc4ccccc4C(=O)O)c3o2)CC1 (stereo not drawn) [Example 371, 2-[1-[6-Methyl-2-[4-(methylcarbamoyl)-1-piperidyl]-4-oxo-chromen-8-yl]ethylamino]benzoic acid]"
